The subject of experiment [1] is SARS-CoV-2 SL1 RNA (SL1 wt). It is filed as binding. The settings on record: for wLOGSY factor / T2 reduction [%] / CSP [Hz]: 10 μM SL1 wt, 200 μM ligand; for wLOGSY factor / T2 reduction [%]: pH 6.2; for T2 reduction [%]: CPMG 100 vs 5 ms; for Rank: FBS ranking from summed ranks of CSP, wLOGSY and T2 results; for CSP [Hz]: ligand 1H CSP, [RNA]:[ligand] 1:20, pH 6.2; for FBS binding to SL1, in words: ligand-detected NMR.

The test system of another experiment is SL1 Δbulge RNA. It is filed as binding, SARS-CoV-2.

As to `COc1ccc(-c2nnc(NC(=O)CN(C)C)s2)cc1` [A.21], in experiment [1], the wLOGSY factor was 1.43, the “T2 reduction [%]” value is recorded as 95.00% and the “CSP [Hz]” value stood at 12.57 Hz. In addition, the Rank in experiment [1] (SL1 wt) is recorded as 13.
Take `COc1ncc2nc(NC(=O)CN(C)C)sc2n1` [A.47]: the “FBS binding to SL1, in words” value in experiment [1] (SL1 wt) is “did not show any improvement”. Moreover, the “FBS result (CSP, wLOGSY, T2 reduction) in words” value in the experiment on SL1 Δbulge RNA is reported as “no effects”.
`CN(C)CC(=O)Nc1nnc(-c2ccc([N+](=O)[O-])cc2)s1` [A.42]: in experiment [1], the wLOGSY factor amounted to 0.90, the “T2 reduction [%]” value is 86.63% and the “CSP [Hz]” value came out at 12.36 Hz. This molecule also gave a Rank in experiment [1] (SL1 wt) of 24. Also, the “FBS result (CSP, wLOGSY, T2 reduction) in words” value with SL1 Δbulge RNA is “no effects”.
As to `COc1ccc2nc(NC(=O)CN3CCC[C@H](NCc4cccc(O)c4)C3)sc2c1` [A.52], in experiment [1], the wLOGSY factor is 0.00, the “T2 reduction [%]” value was found to be 83.78% and the “CSP [Hz]” value is listed as 20.01 Hz. Also, the Rank in experiment [1] (SL1 wt) is on record as 29. In the experiment with SL1 Δbulge RNA, the “FBS result (CSP, wLOGSY, T2 reduction) in words” value is on record as “no effects”.
Consider `CN(C)CC(=O)Nc1nnc(-c2cc(F)c(Cl)c([N+](=O)[O-])c2Cl)s1` [A.43], for which, in experiment [1], the wLOGSY factor came out at 0.00, the “T2 reduction [%]” value amounted to 91.98% and the “CSP [Hz]” value is given as 8.40 Hz. The Rank in experiment [1] (SL1 wt) is reported as 31. Besides, the “FBS result (CSP, wLOGSY, T2 reduction) in words” value in the experiment on SL1 Δbulge RNA was “no effects”.
For `CN(C)CC(=O)Nc1nc2ccc(OC(F)(F)F)cc2s1` [A.28], in that order: 1.01, 85.67%, 13.56 Hz, 21 and “no effects”.
For the molecule `COc1ccc2nc(N(C)C(=O)CN(C)C)sc2c1` [A.34], in experiment [1], the wLOGSY factor worked out at 2.15, the “T2 reduction [%]” value is on record as 81.54% and the “CSP [Hz]” value is 19.56 Hz. Moreover, in experiment [1] (SL1 wt), the Rank is reported as 13 and the “FBS binding to SL1, in words” value is “slightly higher affinity”.
As to `CSc1ccc2nc(NC(=O)CN(C)C)sc2c1` [A.19], in experiment [1], the wLOGSY factor amounted to 0.46, the “T2 reduction [%]” value was 87.00% and the “CSP [Hz]” value stood at 25.08 Hz. The molecule further yielded a Rank in experiment [1] (SL1 wt) of 18. In addition, in the experiment on SL1 Δbulge RNA, the “FBS result (CSP, wLOGSY, T2 reduction) in words” value was “no effects”.
Take `COc1cc(OC)c2nc(NC(=O)CN(C)Cc3ccccc3)sc2c1` [A.25]: the “FBS result (CSP, wLOGSY, T2 reduction) in words” value in the experiment with SL1 Δbulge RNA is “no effects”.
In the case of `COc1ccc(-c2nnc(N)s2)cc1OC` [A.23], the “FBS binding to SL1, in words” value in experiment [1] (SL1 wt) is on record as “no hit”.
For the molecule `CN(C)CC(=O)Nc1nnc(-c2cc([N+](=O)[O-])cc([N+](=O)[O-])c2)s1` [A.41], in experiment [1], the wLOGSY factor is 0.59, the “T2 reduction [%]” value was 93.02% and the “CSP [Hz]” value was 13.68 Hz. Moreover, the Rank in experiment [1] (SL1 wt) worked out at 21. Besides, the “FBS result (CSP, wLOGSY, T2 reduction) in words” value with SL1 Δbulge RNA was “no effects”.
On to `COc1ccc2nc(NC(=O)CN(C)Cc3cncnc3)sc2c1` [A.33], for which, in experiment [1] (SL1 wt), the “FBS binding to SL1, in words” value is “detrimental to binding to SL1”.
`COc1ccc2nc(NC(=O)CN(C)C)[nH]c2c1` [A.20]: in experiment [1], the wLOGSY factor is 0.62, the “T2 reduction [%]” value worked out at 87.00% and the “CSP [Hz]” value was determined as 25.08 Hz. In experiment [1] (SL1 wt), the Rank worked out at 15 and the “FBS binding to SL1, in words” value is reported as “higher score than that of A.2”. Further, in the experiment on SL1 Δbulge RNA, the “FBS result (CSP, wLOGSY, T2 reduction) in words” value is “no effects”.
For `COc1ccc2nc(NC(=O)CN3CCN(C)CC3)sc2c1` [A.18], in experiment [1], the wLOGSY factor is given as 0.80, the “T2 reduction [%]” value is on record as 91.00% and the “CSP [Hz]” value worked out at 22.14 Hz. In experiment [1] (SL1 wt), the Rank was 12 and the “FBS binding to SL1, in words” value was “positive effect on SL1 binding”. The “FBS result (CSP, wLOGSY, T2 reduction) in words” value in the experiment with SL1 Δbulge RNA was “no effects”.
As for `CN(C)CC(=O)Nc1nc2ccc(C(F)(F)F)cc2s1` [A.27], the “FBS result (CSP, wLOGSY, T2 reduction) in words” value in the experiment with SL1 Δbulge RNA is “no effects”.
As to `CC(C)(C)C(=O)Nc1nc2ccccc2s1` [A.7], the “FBS binding to SL1, in words” value in experiment [1] (SL1 wt) is listed as “only minor effects”.
On to `CN(C)CC(=O)Nc1nc2ccc(Br)cc2s1` [A.16], for which, in experiment [1], the wLOGSY factor was 0.74, the “T2 reduction [%]” value worked out at 83.00% and the “CSP [Hz]” value is reported as 27.60 Hz. Besides, in experiment [1] (SL1 wt), the Rank amounted to 17. The “CSP values relative to A.2” value in experiment [1] (ligand CSP, SL1 wt) is listed as 2–3 times. In the experiment on SL1 Δbulge RNA, the “FBS result (CSP, wLOGSY, T2 reduction) in words” value is “no effects”.
As to `COc1ccc2nc(NC(=O)CN(C)C)sc2n1` [A.38], in experiment [1], the wLOGSY factor is given as 1.22, the “T2 reduction [%]” value is reported as 73.62% and the “CSP [Hz]” value was determined as 16.14 Hz. In experiment [1] (SL1 wt), the Rank is 23 and the “FBS binding to SL1, in words” value is on record as “did not show any improvement”. In addition, the “FBS result (CSP, wLOGSY, T2 reduction) in words” value with SL1 Δbulge RNA is “no effects”.
As for `CN(C)CC(=O)Nc1nc2ccc(O)cc2s1` [A.12], in experiment [1], the wLOGSY factor came out at 0.15, the “T2 reduction [%]” value is given as 69.00% and the “CSP [Hz]” value was found to be 10.02 Hz. In addition, in experiment [1] (SL1 wt), the Rank came out at 40 and the “FBS binding to SL1, in words” value is “among the weakest binders”.
Take `COc1ccc2nc(NC(=O)CN3CCN(C)CC3)[nH]c2c1` [A.40]: in experiment [1], the wLOGSY factor amounted to 0.68, the “T2 reduction [%]” value was 41.23% and the “CSP [Hz]” value is reported as 9.48 Hz. Also, in experiment [1] (SL1 wt), the Rank is 37 and the “FBS binding to SL1, in words” value is “reduced activity”. Further, the “FBS result (CSP, wLOGSY, T2 reduction) in words” value in the experiment on SL1 Δbulge RNA was “no effects”.
`COc1ccc2nc(NC(=O)CN(C)C)oc2c1` [A.35]: the “FBS binding to SL1, in words” value in experiment [1] (SL1 wt) is reported as “did not show any improvement”. The “FBS result (CSP, wLOGSY, T2 reduction) in words” value in the experiment on SL1 Δbulge RNA is given as “no effects”.
Regarding `CC(=O)Nc1nc2ccccc2s1` [A.6], the “FBS binding to SL1, in words” value in experiment [1] (SL1 wt) is “only minor effects”.
Regarding `CN(C)CC(=O)Nc1nc2ccc(S(C)(=O)=O)cc2s1` [A.32], in experiment [1], the wLOGSY factor worked out at 0.22, the “T2 reduction [%]” value worked out at 46.43% and the “CSP [Hz]” value came to 6.54 Hz. In experiment [1] (SL1 wt), this molecule came in with a Rank of 41. For the same molecule, the “FBS result (CSP, wLOGSY, T2 reduction) in words” value with SL1 Δbulge RNA is listed as “no effects”.
For the molecule `CN(C)CC(=O)Nc1nc2ccc(N)cc2s1` [A.24], in experiment [1], the wLOGSY factor worked out at 0.49, the “T2 reduction [%]” value was found to be 69.42% and the “CSP [Hz]” value was 11.40 Hz. Besides, in experiment [1] (SL1 wt), the Rank worked out at 35 and the “FBS binding to SL1, in words” value is recorded as “among the weakest binders”. The “FBS result (CSP, wLOGSY, T2 reduction) in words” value in the experiment on SL1 Δbulge RNA is “no effects”.
As for `CN(C)CC(=O)Nc1nc2cnc(Cl)nc2s1` [A.46], the “FBS binding to SL1, in words” value in experiment [1] (SL1 wt) was “did not show any improvement”. Besides, in the experiment on SL1 Δbulge RNA, the “FBS result (CSP, wLOGSY, T2 reduction) in words” value is listed as “no effects”.
For the molecule `COc1ccc2nc(NC(=O)CN3CCC[C@@H](NCc4cccc(O)c4)C3)sc2c1` [A.53], in experiment [1], the wLOGSY factor was 0.00, the “T2 reduction [%]” value was determined as 85.86% and the “CSP [Hz]” value is listed as 21.03 Hz. This molecule registered a Rank in experiment [1] (SL1 wt) of 28. Also, in the experiment on SL1 Δbulge RNA, the “FBS result (CSP, wLOGSY, T2 reduction) in words” value is recorded as “no effects”.
Consider `COc1ccc(-c2nnc(N)s2)cc1` [A.22], for which, in experiment [1] (SL1 wt), the “FBS binding to SL1, in words” value was “no hit”.
With `COCCN(C)CC(=O)Nc1nc2ccc(OC)cc2s1` [A.30], in experiment [1], the wLOGSY factor amounted to 0.14, the “T2 reduction [%]” value is listed as 77.69% and the “CSP [Hz]” value was found to be 10.44 Hz. This molecule also registered a Rank in experiment [1] (SL1 wt) of 35.

Source of the values: paper PMC12356538, “Targeting the SARS-CoV‑2 RNA Translation Initiation Element SL1 by Molecules of Low Molecular Weight” (Journal of the American Chemical Society, 2025).
